Laboratory results: patent US6974568B2, “Treatment for cough” (The Regents of the University of California, priority 2000, dated 2005)

Legend:
bronchial smooth muscle [1] = assay: Bronchoconstriction in vagotomized, atropine-treated guinea pigs; format: in vivo, guinea pig; details: for bronchial muscle constriction, % of maximal bronchospasm: tracheal administration, n=6; for effect on anandamide bronchoconstriction in vivo: antagonist before anandamide
[2] = tested on: guinea pig lung parenchyma strips; assay: Isolated lung strips, muscle contraction; details: for effect on anandamide bronchoconstriction in vitro: SR141716A 1 μM, lung strips
Method: Guinea pig parenchimal strips were prepared essentially as described in Samhoun, M. N., et al. (1984) Prostaglandins, 27, 711-724. The strips were placed in 10-ml organ baths containing Krebs' buffer (in mM: NaCl, 118; KCl, 4; K2HPO4, 1.2; MgSO4, 1.2; CaCl2, 2.5; NaHCO3, 25.0; glucose, 11.2; supplemented with […] atropine sulfate and […] indomethacin) at 37° C. and aerated with an oxygen/carbon dioxide mixture (95/5%). Muscle contractions were recorded with an isometric force transducer (U. Basile) and expressed in dyne per mg of fresh tissue.

[3] = tested on: capsaicin-evoked bronchospasm; assay: Capsaicin-evoked bronchospasm in anesthetized guinea pigs; format: in vivo, guinea pig; details: for effect on capsaicin-evoked bronchospasm: administered systemically before capsaicin; for reversal of anandamide's inhibition of capsaicin-evoked bronchospasm: antagonist given with anandamide, SR141716A 0.5 mg per kg i.v., SR144528 0.3 mg per kg i.v. (maximal dose); for intrinsic effect on capsaicin-evoked bronchoconstriction: capsaicin via tracheal catheter or i.v., antagonist i.v.
bronchial smooth muscle [4] = assay: Direct bronchomotor action in anesthetized animals with intact vagus; format: in vivo, guinea pig
capsaicin-evoked cough = details: guinea pig, in vivo
[5] = tested on: capsaicin-evoked bronchospasm; assay: Capsaicin-evoked bronchospasm in anesthetized rats; format: in vivo, rat; details: n=3
bronchial smooth muscle [6] = assay: Bronchoconstriction in vagotomized, atropine-treated rats; format: in vivo, rat; details: after vagotomy and atropine, n=3
[7] = capsazepine 0.2 mg per kg, i.v.

`CCCCCCC(C)(C)c1cc(O)c2c(c1)OC(C)(C)[C@@H]1CC=C(CO)C[C@@H]21` [HU210] was tested, and the “bronchial muscle constriction, % of maximal bronchospasm” value (shortened to “bronchial muscle constriction, %”) (bronchial smooth muscle [1]; 0.1 mg per animal) was 10.0±0.6%, the “bronchial muscle constriction, %” value (bronchial smooth muscle [1]; 1 mg per animal) was 30±1.2% and the “bronchial muscle constriction, %” value (bronchial smooth muscle [1]; 10 mg per animal) was 60±2.2%. The “bronchial muscle constriction, %” value (bronchial smooth muscle [1]; 30 mg per animal) was 100%.
With `CCCCC/C=C\C/C=C\C/C=C\C/C=C\CCCC(=O)Nc1ccc(O)cc1` [N-(4-hydroxyphenyl)-arachidonamide] the “anandamide-evoked contraction of isolated lung strips” value ([2]; anandamide 50 μM plus N-(4-hydroxyphenyl)-arachidonamide 28 μM, P<0.05, n=6) was 0.638±0.06 dyne/mg of tissue.
For `CCCCCCCCCCCCCCCC(=O)NCCO` [Palmitylethanolamide], the “effect on capsaicin-evoked bronchospasm” value [3] was “ineffective”.
For `Cc1c(C(=O)NN2CCCCC2)nn(-c2ccc(Cl)cc2Cl)c1-c1ccc(Cl)cc1` [SR141716A], the “bronchomotor consequences per se” value (bronchial smooth muscle [4]; antagonist alone, without capsaicin, guinea pigs) was “no bronchomotor consequences per se”, the “effect on anandamide bronchoconstriction in vitro” value [2] was “blocked” and the “reversal of anandamide's inhibition of capsaicin-evoked bronchospasm” value [3] was “completely reversed”. The “bronchospasm, % of maximal bronchospasm” value ([3]; capsaicin i.v. after SR141716A 0.5 mg per kg i.v., P<0.05, n=3) was 92.3±3.4%, the “intrinsic effect on capsaicin-evoked bronchoconstriction” value [3] was “significantly enhanced” and the “effect of CB1 receptor blockade on anandamide's reduction of capsaicin-evoked cough” value (capsaicin-evoked cough; iv) was “abrogated”. For the same compound, the “intrinsic effect on capsaicin-evoked coughing” value (capsaicin-evoked cough; iv) was “significantly enhanced” and the “effect on anandamide bronchoconstriction in vivo” value (bronchial smooth muscle [1]) was “blocked”.
In the case of `CCCCC/C=C\C/C=C\C/C=C\C/C=C\CCCC(=O)NCCO` [anandamide, arachidonylethanolamide], the “bronchoconstriction, % of maximal” value (bronchial smooth muscle [4]; 5 mg per kg (highest dose tested), mean±s.e.m., n=5) is reported as 11.8±5.9%, the direct bronchomotor action (bronchial smooth muscle [4]; doses below the highest dose tested (5 mg per kg), species not given) is reported as “no direct bronchomotor action” and the “bronchospasm, % of maximal bronchospasm” value ([5]; capsaicin intratracheal after anandamide 1 mg per kg i.v.) is reported as 14±7%. The “contraction of isolated lung strips” value ([2]; anandamide 50 μM alone, n=6) was 0.336±0.07 dyne/mg of tissue, the “bronchoconstriction, % of maximal bronchospasm” value (bronchial smooth muscle [6]; 1 mg per kg i.v.) was 0±0% and the “bronchoconstriction, % of maximal bronchospasm” value (bronchial smooth muscle [6]; 3 mg per kg i.v.) was 12±1.7%. The “bronchoconstriction, % of maximal bronchospasm” value (bronchial smooth muscle [6]; 5 mg per kg i.v.) was 18.3±1.2%, the “effect on capsaicin-evoked bronchospasm” value [3] was “abrogated” and the “visual signs of cannabinoid intoxication” value (capsaicin-evoked cough) was “not accompanied by any visual signs of cannabinoid intoxication”. For the same compound, the “bronchomotor effect after vagotomy and atropine” value (bronchial smooth muscle [1]; systemic application, guinea pigs) was “dose-dependent bronchoconstriction”.
In the case of `COc1cc(CNC(=O)CCCC/C=C/C(C)C)ccc1O` [capsaicin], the “bronchospasm, % of maximal bronchospasm” value ([5]; capsaicin 30 mg per animal, intratracheal) is reported as 55±12%, the “bronchospasm, % of maximal bronchospasm” value ([5]; capsaicin 100 mg per animal, intratracheal) is reported as 81±19% and the “bronchospasm, % of maximal bronchospasm” value ([5]; capsaicin intratracheal alone (anandamide experiment)) is reported as 37.2±4.2%. The “bronchospasm, % of maximal bronchospasm” value ([5]; capsaicin, intratracheal, mean±s.e.m.) was 41±6% and the “bronchospasm, % of maximal bronchospasm” value ([3]; capsaicin alone, i.v., n=3) was 55.3±8.2%.
With `Oc1cc2c(cc1O)CN(C(=S)NCCc1ccc(Cl)cc1)CCC2` [capsazepine] the “effect on the capsaicin response (bronchospasm)” value [3, 7] was “completely prevented” and the “effect on anandamide-evoked bronchospasm” value (bronchial smooth muscle [1]; [7]) was “had no effect”.
SR144528 was tested, and the “effect on anandamide bronchoconstriction in vitro” value [2] was “had no such effect”, the “reversal of anandamide's inhibition of capsaicin-evoked bronchospasm” value [3] was “only slightly reduced” and the “intrinsic effect on capsaicin-evoked bronchoconstriction” value [3] was “had no such effects”. For the same compound, the “intrinsic effect on capsaicin-evoked coughing” value (capsaicin-evoked cough; iv) was “had no such effects” and the “effect on anandamide bronchoconstriction in vivo” value (bronchial smooth muscle [1]) was “had no such effect”.
